Legend:
[1] = biological target: human PKA catalytic isoform Cβ1 (PKA-Cβ1) (Homo sapiens, UniProt P22694); test: Fluorescence polarization (FP) direct binding; details: FAM-labeled negative control peptide; three independent measurements with three protein preparations
[2] = biological target: human PKA catalytic isoform Cα (PKA-Cα) (Homo sapiens, UniProt P17612); test: Fluorescence polarization (FP) direct binding; details: FAM-labeled negative control peptide; three independent measurements with three protein preparations

βA-TTY*DFI*SGRTGFFNAIHD (sidechain bridge or staple) [negative control peptide]
binding to PKA-Cb (FP) [1]: No binding
binding to PKA-Ca (FP) [2]: No binding
